Nine compounds from ChEMBL document CHEMBL3046563, “Synthesis and antihypertensive activity evaluation in spontaneously hypertensive rats of nitrendipine analogues” (2011) can be followed below.

Format in all cases: functional, Artery
Settings in all cases: route intragastric

In assay [1] the test system is Rattus norvegicus. The assay can be described thus: Antihypertensive activity in spontaneously hypertensive Rattus norvegicus (rat) assessed as reduction of systolic blood pressure at 2 mg/kg, ig after 1 hr.
For assay [2], the system named is Rattus norvegicus. The assay can be described thus: Antihypertensive activity in spontaneously hypertensive Rattus norvegicus (rat) assessed as reduction of systolic blood pressure at 2 mg/kg, ig after 4 hr.
Assay [3] deals with Rattus norvegicus. The assay can be described thus: Antihypertensive activity in spontaneously hypertensive rat assessed as reduction of systolic blood pressure at 2 mg/kg, ig after 2 hr.
Assay [4] concerns Rattus norvegicus. Put plainly: Antihypertensive activity in spontaneously hypertensive Rattus norvegicus (rat) assessed as reduction of systolic blood pressure at 4 mg/kg, ig after 8 hr.
The subject of assay [5] is Rattus norvegicus. The assay can be described thus: Antihypertensive activity in spontaneously hypertensive Rattus norvegicus (rat) assessed as reduction of systolic blood pressure at 4 mg/kg, ig after 4 hr.
The subject of assay [6] is Rattus norvegicus. Put plainly: Antihypertensive activity in spontaneously hypertensive Rattus norvegicus (rat) assessed as reduction of systolic blood pressure at 4 mg/kg, ig after 2 hr.
Assay [7] deals with Rattus norvegicus. Put plainly: Antihypertensive activity in spontaneously hypertensive Rattus norvegicus (rat) assessed as reduction of systolic blood pressure at 4 mg/kg, ig after 6 hr.
The test system of assay [8] is Rattus norvegicus. The assay can be described thus: Antihypertensive activity in spontaneously hypertensive Rattus norvegicus (rat) assessed as reduction of systolic blood pressure at 4 mg/kg, ig after 1 hr.
The subject of assay [9] is Rattus norvegicus. The assay can be described thus: Antihypertensive activity in spontaneously hypertensive Rattus norvegicus (rat) assessed as reduction of systolic blood pressure at 1 mg/kg, ig after 1 hr.
Assay [10] deals with Rattus norvegicus. The assay can be described thus: Antihypertensive activity in spontaneously hypertensive Rattus norvegicus (rat) assessed as reduction of systolic blood pressure at 1 mg/kg, ig after 2 hr.

For `CCCCCCCCOC(=O)C1=C(C)NC(C)=C(C(=O)OC)C1c1cccc([N+](=O)[O-])c1` (configuration not stated), the Activity in [1] worked out at 38 mmHg.
On the same count and under the same terms, in the case of `CCCCCCCCCCOC(=O)C1=C(C)NC(C)=C(C(=O)OC)C1c1cccc([N+](=O)[O-])c1` (configuration not stated) it was 31 mmHg; in that of `CCCCCCCCCCCCOC(=O)C1=C(C)NC(C)=C(C(=O)OC)C1c1cccc([N+](=O)[O-])c1` (configuration not stated), 17 mmHg.
On to `CCCCCCCOC(=O)C1=C(C)NC(C)=C(C(=O)OC)[C@@H]1c1cccc([N+](=O)[O-])c1`, for which the values for the Activity in assay [2], in assay [3] and in [1] were -2 mmHg, 47 mmHg and 93 mmHg, respectively.
Regarding `CCCOC(=O)C1=C(C)NC(C)=C(C(=O)OC)C1c1cccc([N+](=O)[O-])c1` (configuration not stated), the Activity in assay [1] turned out to be 43 mmHg.
Regarding `CCCCCOC(=O)C1=C(C)NC(C)=C(C(=O)OC)C1c1cccc([N+](=O)[O-])c1` (configuration not stated), the Activity in [1] is 44 mmHg.
As to `CCCCCCCOC(=O)C1=C(C)NC(C)=C(C(=O)OC)C1c1cccc([N+](=O)[O-])c1` (racemic), the Activity was -4 mmHg in assay [2]; 21 mmHg in assay [4]; 67 mmHg in assay [5]; 42 mmHg in [3]; 107 mmHg in [6]; 45 mmHg in [7]. Also, the figures for the Activity in [8] and in assay [1] were 119 mmHg and 52 mmHg, respectively.
For the compound `CCOC(=O)C1=C(C)NC(C)=C(C(=O)OC)C1c1cccc([N+](=O)[O-])c1` (stereo in doubt; 1) [NITRENDIPINE], the Activity in [1] (2 mg/kg) is on record as 26 mmHg.
As for `CCOC(=O)C1=C(C)NC(C)=C(C(=O)OC)C1c1cccc([N+](=O)[O-])c1` (stereo in doubt; 2) [NITRENDIPINE], the Activity in [2] was -2 mmHg; in assay [3], 8 mmHg; in [9] it was 33 mmHg; in assay [1] (2 mg/kg), 39 mmHg; in [10] it was 0 mmHg.
